According to BindingDB's records for doi:10.1021/jm00123a012 (Dainippon Pharmaceutical, 1989):

Target: Polyunsaturated fatty acid 5-lipoxygenase (Cavia porcellus)
Experiment: Inhibitory activity against 5-lipoxygenase in guinea pig leukocyte

IC50: 4.86 µM
SMILES: Cc1ccc(/C=C/C(=O)NCCCCN2CCN(C(c3ccccc3)c3ccccc3)CC2)cn1 [N-[4-(4-Benzhydryl-piperazin-1-yl)-butyl]-3-(6-methyl-pyridin-3-yl)-acrylamide]
